Data as given in patent US9278981B2, “Compounds and compositions for inhibiting the activity of ABL1, ABL2 and BCR-ABL1” (Novartis AG, priority 2012, dated 2016).
pIC50: −log10 of the molar value.

What was measured:
[1] = molecular target: T1, ABL1 (64-515) (Homo sapiens (Human), UniProt P00519); assay: Caliper ABL1 (64-515) assay (microfluidic mobility shift); format: biochemical
[2] = molecular target: T1, ABL1 (64-515); assay: Radio ABL1 (64-515) assay (radiometric filter-binding); format: biochemical

T1 sequence (P00519 64-515): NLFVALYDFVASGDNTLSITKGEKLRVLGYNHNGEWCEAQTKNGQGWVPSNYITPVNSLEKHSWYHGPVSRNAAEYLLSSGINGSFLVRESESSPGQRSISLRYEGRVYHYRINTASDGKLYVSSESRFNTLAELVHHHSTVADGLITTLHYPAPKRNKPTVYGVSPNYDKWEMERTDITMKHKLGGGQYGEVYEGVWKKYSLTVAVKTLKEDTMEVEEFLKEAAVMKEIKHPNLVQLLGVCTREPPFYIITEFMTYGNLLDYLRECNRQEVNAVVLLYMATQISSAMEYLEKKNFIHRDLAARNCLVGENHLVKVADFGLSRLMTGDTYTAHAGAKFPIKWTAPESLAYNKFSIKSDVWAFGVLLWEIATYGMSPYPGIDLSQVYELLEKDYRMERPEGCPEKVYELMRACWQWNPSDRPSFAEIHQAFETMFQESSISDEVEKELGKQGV

Compound	pIC50 [1]	pIC50 [2]
O=C(Nc1ccc(OC(F)(F)F)cc1)c1cnc(N2CC(CO)C2)c(-c2cncnc2)c1 [Example 135, 6-(3-(Hydroxymethyl)azetidin-1-yl)-5-(pyrimidin-5-yl)-N-(4-(trifluoromethoxy)phenyl)nicotinamide]	8.70	> 8.52
O=C(Nc1ccc(OC(F)(F)Cl)cc1)c1cnc(N2CC[C@@H](O)C2)c(-c2cccnc2F)c1 [Example 172, (R)—N-(4-(Chlorodifluoromethoxy)phenyl)-2′-fluoro-2-(3-hydroxypyrrolidin-1-yl)-[3,3′-bipyridine]-5-carboxamide]	9.52	> 8.52
N#Cc1cncc(-c2cc(C(=O)Nc3ccc(SC(F)(F)F)cc3)cnc2N2CC[C@H](CO)C2)c1 [Example 191, (S)-5′-Cyano-2-(3-(hydroxymethyl)pyrrolidin-1-yl)-N-(4-((trifluoromethyl)thio)phenyl)-[3,3′-bipyridine]-5-carboxamide]	9.05	8.10
O=C(Nc1ccc(OC(F)(F)F)cc1)c1cnc(N2CCC(F)(F)C2)c(-c2cncnc2)c1 [Example 224, 6-(3,3-Difluoropyrrolidin-1-yl)-5-(pyrimidin-5-yl)-N-(4-(trifluoromethoxy)phenyl)nicotinamide]	8.33	8.80
O=C(Nc1ccc(OC(F)(F)Cl)cc1)c1cnc(N2C[C@@H](O)[C@@H](O)C2)c(-c2cncc(F)c2)c1 [Example 264]	9.22	9.00
O=C(Nc1ccc(OC(F)(F)F)c(F)c1)c1cnc(N2CC[C@H](CO)C2)c(-c2cncc(F)c2)c1 [Example 202, (S)-5′-Fluoro-N-(3-fluoro-4-(trifluoromethoxy)phenyl)-2-(3-(hydroxymethyl)pyrrolidin-1-yl)-[3,3′-bipyridine]-5-carboxamide]	9.15	8.47
O=C(Nc1ccc(OC(F)(F)F)cc1)c1ccc(N2C[C@H](O)[C@@H](O)C2)c(-c2cncnc2)c1 [Example 7, 4-((3S,4S)-3,4-Dihydroxypyrrolidin-1-yl)-3-(pyrimidin-5-yl)-N-(4-(trifluoromethoxy)phenyl)benzamide]	8.92	> 8.52
CO[C@H]1CN(c2ncc(C(=O)Nc3ccc(OC(F)(F)F)cc3)cc2-c2cncc(F)c2)C[C@@H]1N (relative stereo) [Example 286, 2-(trans-3-Amino-4-methoxypyrrolidin-1-yl)-5′-fluoro-N-(4-(trifluoromethoxy)phenyl)-[3,3′-bipyridine]-5-carboxamide]	8.77	8.70
O=C(Nc1ccc(S(F)(F)(F)(F)F)cc1)c1cnc(N2CC[C@@H](O)C2)c(-c2cncc(F)c2)c1 [Example 277]	8.77	8.70
N#Cc1cncc(-c2cc(C(=O)Nc3ccc(OC(F)(F)F)c(F)c3)cnc2N2CC[C@H](CO)C2)c1 [Example 203, (S)-5′-Cyano-N-(3-fluoro-4-(trifluoromethoxy)phenyl)-2-(3-(hydroxymethyl)pyrrolidin-1-yl)-[3,3′-bipyridine]-5-carboxamide]	9.05	9.00
O=C(Nc1ccc(OC(F)(F)F)cc1)c1cnc(N2CC(O)C2)c(-c2cncnc2)c1 [Example 25]	8.72	> 8.52
CN(C)[C@H]1CN(c2ncc(C(=O)Nc3ccc(OC(F)(F)F)cc3)cc2-c2cncc(F)c2)C[C@@H]1O [Example 236, 2-((3S,4S)-3-(Dimethylamino)-4-hydroxypyrrolidin-1-yl)-5′-fluoro-N-(4-(trifluoromethoxy)phenyl)-[3,3′-bipyridine]-5-carboxamide]	8.85	8.52
Cc1ncc(-c2cc(C(=O)Nc3ccc(OC(F)(F)F)cc3)cnc2N2CC(CO)C2)cc1F [Example 140, 5′-Fluoro-2-(3-(hydroxymethyl)azetidin-1-yl)-6′-methyl-N-(4-(trifluoromethoxy)phenyl)-[3,3′-bipyridine]-5-carboxamide]	9.40	8.40
O=C(Nc1ccc(OC(F)(F)F)cc1)c1cnc(N2CC[C@@H](O)C2)c(-c2cc(F)cnc2F)c1 [Example 49, (R)-2′,5′-Difluoro-2-(3-hydroxypyrrolidin-1-yl)-N-(4-(trifluoromethoxy)phenyl)-[3,3′-bipyridine]-5-carboxamide]	8.46	8.30
COC(=O)c1cc(F)cc(-c2cc(C(=O)Nc3ccc(OC(F)(F)F)cc3)cnc2N2CC[C@@H](O)C2)c1 [Example 62, (R)-Methyl 3-fluoro-5-(2-(3-hydroxypyrrolidin-1-yl)-5-((4-(trifluoromethoxy)phenyl)carbamoyl)pyridin-3-yl)benzoate]	8.68	8.40
CN(CCO)c1ncc(C(=O)Nc2ccc(OC(F)(F)F)cc2)cc1-c1cncc(F)c1 [Example 154, 5′-Fluoro-2-((2-hydroxyethyl)(methyl)amino)-N-(4-(trifluoromethoxy)phenyl)-[3,3′-bipyridine]-5-carboxamide]	9.00	> 8.52
O=C(Nc1ccc(OC(F)(F)Cl)cc1)c1cnc(N2CCNC3(CC3)C2)c(-c2cncnc2)c1 [Example 256]	9.40	8.70
O=C(Nc1ccc(OC(F)(F)F)cc1)c1cnc(N2CC[C@@H](O)C2)c(-c2cnccc2F)c1 [Example 48, (R)-4′-Fluoro-2-(3-hydroxypyrrolidin-1-yl)-N-(4-(trifluoromethoxy)phenyl)-[3,3′-bipyridine]-5-carboxamide]	9.10	8.38

Other lines, results leading:

pIC50 [1]	pIC50 [2]	Compound
9.30	> 8.52	O=C(Nc1ccc(OC(F)(F)F)cc1)c1cnc(N2CCCC2)c(-c2ccc(CO)nc2)c1 [Example 69, 6′-(Hydroxymethyl)-2-(pyrrolidin-1-yl)-N-(4-(trifluoromethoxy)phenyl)-[3,3′-bipyridine]-5-carboxamide]
> 9.89	8.52	O=C(Nc1ccc(OC(F)(F)Cl)cc1)c1cnc(N2C[C@H](O)[C@@H](O)C2)c(-c2cncc(F)c2)c1 [Example 265]
9.52	9.00	NC[C@@H]1CCN(c2ncc(C(=O)Nc3ccc(OC(F)(F)Cl)cc3)cc2-c2cncnc2)C1 [Example 177, (S)-6-(3-(Aminomethyl)pyrrolidin-1-yl)-N-(4-(chlorodifluoromethoxy)phenyl)-5-(pyrimidin-5-yl)nicotinamide]
9.30	8.08	NC12CC1CN(c1ncc(C(=O)Nc3ccc(OC(F)(F)Cl)cc3)cc1-c1cncnc1)C2 (stereo not shown) [Example 252]
8.96	8.52	O=C(Nc1ccc(OC(F)(F)F)cc1)c1cnc(N2CC[C@H](CO)C2)c(-c2ccc(CF)nc2)c1 [Example 84, (S)-6′-(Fluoromethyl)-2-(3-(hydroxymethyl)pyrrolidin-1-yl)-N-(4-(trifluoromethoxy)phenyl)-[3,3′-bipyridine]-5-carboxamide]
8.96	8.68	N[C@@H]1CCCN(c2ncc(C(=O)Nc3ccc(OC(F)(F)Cl)cc3)cc2-c2cncnc2)C1 [Example 255]
8.55	7.43	CCN(CCO)c1ncc(C(=O)Nc2ccc(OC(F)(F)F)cc2)cc1-c1cncc(C#N)c1 [Example 158, 5′-Cyano-2-(ethyl(2-hydroxyethyl)amino)-N-(4-(trifluoromethoxy)phenyl)-[3,3′-bipyridine]-5-carboxamide]
> 9.89	> 10.00	N#Cc1cncc(-c2cc(C(=O)Nc3ccc(OC(F)(F)Cl)cc3)cnc2N2C[C@H](O)[C@@H](O)C2)c1 [Example 269]
9.30	8.89	O=C(Nc1ccc(OC(F)(F)Cl)cc1)c1ccc(N2CC[C@@H](O)C2)c(-c2cncnc2)c1 [Example 243, (R)—N-(4-(Chlorodifluoromethoxy)phenyl)-4-(3-hydroxypyrrolidin-1-yl)-3-(pyrimidin-5-yl)benzamide]
9.40	9.00	CN(CCO)c1ncc(C(=O)Nc2ccc(OC(F)(F)Cl)cc2)cc1-c1cncc(F)c1 [Example 180, N-(4-(Chlorodifluoromethoxy)phenyl)-5′-fluoro-2-((2-hydroxyethyl)(methyl)amino)-[3,3′-bipyridine]-5-carboxamide]
8.74	7.80	CCN(CCO)c1ncc(C(=O)Nc2ccc(SC(F)(F)F)cc2)cc1-c1cncc(C#N)c1 [Example 197, 5′-Cyano-2-(ethyl(2-hydroxyethyl)amino)-N-(4-((trifluoromethyl)thio)phenyl)-[3,3′-bipyridine]-5-carboxamide]
8.92	8.52	O=C(Nc1ccc(OC(F)(F)F)cc1)c1cnc(N2CC[C@@H](O)C2)c(-c2ccc(F)nc2)c1 [Example 47, (R)-6′-Fluoro-2-(3-hydroxypyrrolidin-1-yl)-N-(4-(trifluoromethoxy)phenyl)-[3,3′-bipyridine]-5-carboxamide]
8.92	8.52	O=C(Nc1ccc(OC(F)(F)F)c(F)c1)c1cnc(N2CC[C@@H](O)C2)c(-c2cncc(F)c2)c1 [Example 199, (R)-5′-Fluoro-N-(3-fluoro-4-(trifluoromethoxy)phenyl)-2-(3-hydroxypyrrolidin-1-yl)-[3,3′-bipyridine]-5-carboxamide]
9.10	> 8.52	O=C(Nc1ccc(OC(F)(F)F)cc1)c1cnc(N2CC[C@@H](O)C2)c(-c2ccc(CO)nc2)c1 [Example 42, (R)-6′-(Hydroxymethyl)-2-(3-hydroxypyrrolidin-1-yl)-N-(4-(trifluoromethoxy)phenyl)-[3,3′-bipyridine]-5-carboxamide]
8.09	8.10	O=C(Nc1ccc(S(=O)(=O)C(F)(F)F)cc1)c1cnc(N2CC[C@@H](O)C2)c(-c2cncnc2)c1 [Example 214, (R)-6-(3-Hydroxypyrrolidin-1-yl)-5-(pyrimidin-5-yl)-N-(4-((trifluoromethyl)sulfonyl)phenyl)nicotinamide]
9.15	8.70	Cc1ncc(-c2cc(C(=O)Nc3ccc(OC(F)(F)Cl)cc3)cnc2N2C[C@H](O)[C@@H](O)C2)cn1 [Example 262]
9.30	8.23	O=C(Nc1ccc(SC(F)(F)F)cc1)c1cnc(N2CC[C@H](CO)C2)c(-c2cncc(F)c2)c1 [Example 190, (S)-5′-Fluoro-2-(3-(hydroxymethyl)pyrrolidin-1-yl)-N-(4-((trifluoromethyl)thio)phenyl)-[3,3′-bipyridine]-5-carboxamide]
